Eleven compounds from US20240150360A1 (THE REGENTS OF THE UNIVERSITY OF MICHIGAN, priority 2021, published 2024) can be followed below.

The subject of one assay is 22Rv1 cells. The assay is described as follows: Cell growth inhibition assay (CellTiter-Glo) in 22Rv1. The note with it: Homo sapiens, 22Rv1 cells, 96 h incubation, read-out: Cell Growth Inhibition (IC50) 22Rv1. Format: cell-based, human. The essentials: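 22Rv1 prostate cancer cells (passages 3-8, DMEM with 10% FBS) were seeded at 4000 cells/well with compound, 3-fold dilutions from 10 μM final. After 96 h at 37° C and 5% CO2, growth was read by CellTiter-Glo 2.0 luminescence.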
(ATP-based viability assays read luminescence as a measure of living cells.)

For a further assay, the target named is T1, CBP (Homo sapiens, UniProt Q92793).
T1 construct: endogenous in cells; host or cells: 22Rv1 (ATCC CRL-2505) human prostate cancer cells
The assay is described as follows: CBP degradation in 22Rv1 cells (5 h). Format: cell-based. The note with it: for Dmax: 22Rv1, 5 h, read-out: CBP Degradation (22Rv1, 5 h) DCmax. The text has this:
(§1) Biological Assays. […] Cells with 3-8 passages after purchase were used in experiments.

For another assay, the target named is T2, P300 (Homo sapiens, UniProt Q09472).
T2 construct: endogenous in cells; host or cells: 22Rv1 (ATCC CRL-2505) human prostate cancer cells
Briefly: P300 degradation in 22Rv1 cells (5 h). In kind it is cell-based. The note with it: for Dmax: read-out: P300 Degradation (22Rv1, 5 h) DCmax.
Description: as §1

For the next assay, the system named is HL60. Briefly: Cell growth inhibition in HL60. Format: cell-based. The note with it: Homo sapiens, HL-60, HL60 cells; read-out: Cell Growth Inhibition (IC50) HL60.

Read-outs that look alike come from different tables or passages of the source.

T2 sequence (Q09472 whole entry): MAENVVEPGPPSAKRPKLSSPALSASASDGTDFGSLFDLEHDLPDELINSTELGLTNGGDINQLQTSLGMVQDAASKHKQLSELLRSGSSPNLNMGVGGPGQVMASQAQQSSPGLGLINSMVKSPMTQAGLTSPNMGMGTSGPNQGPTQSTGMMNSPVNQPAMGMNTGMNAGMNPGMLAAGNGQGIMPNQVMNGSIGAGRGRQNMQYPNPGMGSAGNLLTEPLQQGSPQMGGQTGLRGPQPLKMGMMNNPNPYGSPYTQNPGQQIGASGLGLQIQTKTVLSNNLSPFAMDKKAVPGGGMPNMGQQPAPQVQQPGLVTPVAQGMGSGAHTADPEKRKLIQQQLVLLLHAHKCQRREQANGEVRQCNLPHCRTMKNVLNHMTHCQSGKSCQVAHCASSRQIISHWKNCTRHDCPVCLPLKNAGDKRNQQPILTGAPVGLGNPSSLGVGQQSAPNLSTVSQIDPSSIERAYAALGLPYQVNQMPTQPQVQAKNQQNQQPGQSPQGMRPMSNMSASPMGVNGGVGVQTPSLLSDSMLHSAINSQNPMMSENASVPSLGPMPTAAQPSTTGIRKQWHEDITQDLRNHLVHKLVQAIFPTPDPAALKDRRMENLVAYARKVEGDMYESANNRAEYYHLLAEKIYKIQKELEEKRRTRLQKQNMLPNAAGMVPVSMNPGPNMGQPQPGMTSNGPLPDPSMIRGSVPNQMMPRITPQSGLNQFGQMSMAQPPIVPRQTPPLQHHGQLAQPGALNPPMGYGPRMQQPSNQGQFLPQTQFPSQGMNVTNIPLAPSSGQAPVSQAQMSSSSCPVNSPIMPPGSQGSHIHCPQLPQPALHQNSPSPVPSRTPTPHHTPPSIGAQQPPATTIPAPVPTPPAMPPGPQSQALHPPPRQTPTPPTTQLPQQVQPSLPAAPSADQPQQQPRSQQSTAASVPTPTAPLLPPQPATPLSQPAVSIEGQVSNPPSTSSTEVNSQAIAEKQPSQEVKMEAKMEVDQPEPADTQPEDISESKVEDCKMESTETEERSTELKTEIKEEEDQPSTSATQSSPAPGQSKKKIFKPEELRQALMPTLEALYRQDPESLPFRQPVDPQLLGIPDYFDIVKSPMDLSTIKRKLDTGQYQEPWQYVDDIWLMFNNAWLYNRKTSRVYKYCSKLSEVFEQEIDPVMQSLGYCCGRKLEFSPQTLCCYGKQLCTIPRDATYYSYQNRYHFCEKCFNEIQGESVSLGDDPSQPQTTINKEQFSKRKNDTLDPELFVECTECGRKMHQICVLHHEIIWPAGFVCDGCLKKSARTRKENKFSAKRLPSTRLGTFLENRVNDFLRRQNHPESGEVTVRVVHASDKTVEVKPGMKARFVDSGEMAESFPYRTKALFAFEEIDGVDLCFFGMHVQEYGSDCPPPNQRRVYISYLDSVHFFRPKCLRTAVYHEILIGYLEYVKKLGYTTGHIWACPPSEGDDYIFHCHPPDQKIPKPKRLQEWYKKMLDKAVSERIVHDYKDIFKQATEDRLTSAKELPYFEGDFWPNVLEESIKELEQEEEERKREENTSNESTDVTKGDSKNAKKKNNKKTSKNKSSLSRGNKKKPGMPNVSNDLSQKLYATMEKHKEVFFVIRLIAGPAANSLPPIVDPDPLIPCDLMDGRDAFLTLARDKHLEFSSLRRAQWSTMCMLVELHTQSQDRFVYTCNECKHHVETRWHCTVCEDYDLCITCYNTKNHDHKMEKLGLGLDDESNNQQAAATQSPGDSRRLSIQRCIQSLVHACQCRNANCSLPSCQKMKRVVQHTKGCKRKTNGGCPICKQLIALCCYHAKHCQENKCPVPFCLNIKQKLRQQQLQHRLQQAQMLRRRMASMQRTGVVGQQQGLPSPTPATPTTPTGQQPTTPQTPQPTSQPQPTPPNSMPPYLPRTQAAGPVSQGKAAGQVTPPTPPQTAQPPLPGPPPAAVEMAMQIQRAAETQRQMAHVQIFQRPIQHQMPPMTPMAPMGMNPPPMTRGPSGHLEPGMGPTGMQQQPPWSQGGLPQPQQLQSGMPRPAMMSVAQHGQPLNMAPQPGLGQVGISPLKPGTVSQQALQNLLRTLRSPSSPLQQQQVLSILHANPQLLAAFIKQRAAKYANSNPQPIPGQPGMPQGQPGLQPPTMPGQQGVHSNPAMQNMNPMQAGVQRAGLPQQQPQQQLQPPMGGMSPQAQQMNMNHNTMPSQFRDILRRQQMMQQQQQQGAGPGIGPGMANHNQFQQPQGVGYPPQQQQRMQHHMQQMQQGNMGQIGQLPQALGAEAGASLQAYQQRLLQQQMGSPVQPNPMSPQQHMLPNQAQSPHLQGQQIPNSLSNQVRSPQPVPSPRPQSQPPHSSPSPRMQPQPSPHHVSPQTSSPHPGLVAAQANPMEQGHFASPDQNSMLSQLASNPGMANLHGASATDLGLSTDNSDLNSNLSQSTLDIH
T1 sequence (Q92793 whole entry): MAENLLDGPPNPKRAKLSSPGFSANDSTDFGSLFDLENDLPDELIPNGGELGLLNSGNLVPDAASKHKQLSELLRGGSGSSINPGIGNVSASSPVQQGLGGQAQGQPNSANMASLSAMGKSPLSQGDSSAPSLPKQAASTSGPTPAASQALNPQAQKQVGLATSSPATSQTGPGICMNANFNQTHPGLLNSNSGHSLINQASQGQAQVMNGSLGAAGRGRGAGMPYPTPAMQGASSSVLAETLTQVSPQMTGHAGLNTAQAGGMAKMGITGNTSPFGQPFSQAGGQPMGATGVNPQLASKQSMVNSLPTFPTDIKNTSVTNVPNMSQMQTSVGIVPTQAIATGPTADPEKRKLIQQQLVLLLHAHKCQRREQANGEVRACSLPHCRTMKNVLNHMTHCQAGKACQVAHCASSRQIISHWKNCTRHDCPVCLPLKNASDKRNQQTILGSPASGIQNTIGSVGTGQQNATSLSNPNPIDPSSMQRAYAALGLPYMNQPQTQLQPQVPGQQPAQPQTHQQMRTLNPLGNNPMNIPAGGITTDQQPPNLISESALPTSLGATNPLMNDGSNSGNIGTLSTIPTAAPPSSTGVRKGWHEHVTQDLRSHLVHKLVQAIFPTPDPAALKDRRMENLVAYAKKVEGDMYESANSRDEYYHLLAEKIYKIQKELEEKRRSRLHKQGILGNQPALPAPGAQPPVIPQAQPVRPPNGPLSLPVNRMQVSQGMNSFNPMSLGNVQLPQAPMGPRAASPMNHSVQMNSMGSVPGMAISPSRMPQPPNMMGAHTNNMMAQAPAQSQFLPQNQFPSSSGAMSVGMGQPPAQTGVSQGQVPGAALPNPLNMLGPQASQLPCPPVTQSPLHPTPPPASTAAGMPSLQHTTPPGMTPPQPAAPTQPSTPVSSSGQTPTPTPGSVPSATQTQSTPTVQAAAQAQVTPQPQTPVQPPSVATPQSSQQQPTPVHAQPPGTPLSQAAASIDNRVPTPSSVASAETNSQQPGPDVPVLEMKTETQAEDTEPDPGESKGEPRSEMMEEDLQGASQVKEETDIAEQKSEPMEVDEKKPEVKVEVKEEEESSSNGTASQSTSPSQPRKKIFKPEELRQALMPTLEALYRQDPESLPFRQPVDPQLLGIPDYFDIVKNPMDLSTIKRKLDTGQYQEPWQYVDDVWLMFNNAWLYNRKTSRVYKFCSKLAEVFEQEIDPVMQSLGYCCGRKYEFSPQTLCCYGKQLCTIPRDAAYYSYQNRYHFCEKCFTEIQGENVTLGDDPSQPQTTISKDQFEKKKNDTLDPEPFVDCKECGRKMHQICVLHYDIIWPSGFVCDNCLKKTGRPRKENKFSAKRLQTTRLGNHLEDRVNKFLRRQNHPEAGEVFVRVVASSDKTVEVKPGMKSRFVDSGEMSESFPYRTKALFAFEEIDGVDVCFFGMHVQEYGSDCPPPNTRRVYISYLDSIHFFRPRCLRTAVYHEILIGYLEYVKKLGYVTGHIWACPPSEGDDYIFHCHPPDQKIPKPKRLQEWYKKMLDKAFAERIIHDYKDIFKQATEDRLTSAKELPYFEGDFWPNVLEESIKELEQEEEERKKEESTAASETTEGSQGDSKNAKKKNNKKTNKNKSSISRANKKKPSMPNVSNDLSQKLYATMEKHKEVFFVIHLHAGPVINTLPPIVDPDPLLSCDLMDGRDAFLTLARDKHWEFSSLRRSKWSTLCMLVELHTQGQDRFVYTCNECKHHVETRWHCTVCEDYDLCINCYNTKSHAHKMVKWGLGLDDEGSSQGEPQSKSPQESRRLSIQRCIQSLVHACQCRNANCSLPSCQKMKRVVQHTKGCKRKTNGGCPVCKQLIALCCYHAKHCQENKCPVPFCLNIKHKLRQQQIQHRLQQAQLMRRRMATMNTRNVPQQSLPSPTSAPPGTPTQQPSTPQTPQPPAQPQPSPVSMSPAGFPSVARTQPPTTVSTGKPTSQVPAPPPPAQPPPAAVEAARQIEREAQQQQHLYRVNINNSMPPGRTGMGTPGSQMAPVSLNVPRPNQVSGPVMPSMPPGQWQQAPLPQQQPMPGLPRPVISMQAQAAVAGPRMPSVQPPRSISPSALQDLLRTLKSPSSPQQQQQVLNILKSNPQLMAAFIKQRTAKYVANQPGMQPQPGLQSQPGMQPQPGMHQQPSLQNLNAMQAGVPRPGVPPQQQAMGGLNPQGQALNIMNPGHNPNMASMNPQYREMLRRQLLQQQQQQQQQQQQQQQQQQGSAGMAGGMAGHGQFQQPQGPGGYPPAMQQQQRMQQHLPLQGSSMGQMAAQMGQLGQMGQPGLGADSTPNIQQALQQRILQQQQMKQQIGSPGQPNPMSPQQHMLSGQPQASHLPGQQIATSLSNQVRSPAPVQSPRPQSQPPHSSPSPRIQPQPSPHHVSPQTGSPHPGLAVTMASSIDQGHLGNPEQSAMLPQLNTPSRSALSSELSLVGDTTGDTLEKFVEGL

What is called IC50 is the point on the concentration scale where inhibition reaches its midpoint. The DC50 is the concentration giving 50% degradation. A low value points to a more potent degrader. For the compound `CC(=O)N1CCc2c(c(N3CCCc4cc(CCC(C)C)c(C(F)F)cc43)nn2C2CCN(C(=O)CN3Cc4cc5c(cc4C3)C(=O)N(C3CCC(=O)NC3=O)C5=O)CC2)C1` (stereo not drawn) [CP-026, 6-(2-(4-(5-acetyl-3-(7-(difluoromethyl)-6-isopentyl-3,4-dihydroquinolin-1(2H)-yl)-4,5,6,7-tetrahydro-1H-pyrazolo[4,3-c]pyridin-1-yl)piperidin-1-yl)-2-oxoethyl)-2-(2,6-dioxopiperidin-3-yl)-6,7-dihydropyrrolo[3,4-f]isoindole-1,3(2H,5H)-dione], the IC50 in the assay on 22Rv1 cells (22Rv1, 96 h) is less than 1000 nM; in the assay on HL60 it was less than 100 nM. Also, the Dmax was more than 90% at CBP (22Rv1 cells, 5 h) and more than 70% on P300 (22Rv1 cells, 5 h). In addition, the DC50 on CBP (22Rv1 cells, 5 h) is less than 10 nM; at P300 (22Rv1 cells, 5 h), less than 10 nM.
As to `CC(=O)N1CCc2c(c(N3CCCc4cc(-c5cnn(C)c5)c(C(F)F)cc43)nn2C2CCC(N3CCc4cc5c(cc4C3)C(=O)N(C3CCC(=O)NC3=O)C5=O)CC2)C1` (stereo not drawn) [CP-038, 6-(4-(5-acetyl-3-(7-(difluoromethyl)-6-(1-methyl-1H-pyrazol-4-yl)-3,4-dihydroquinolin-1(2H)-yl)-4,5,6,7-tetrahydro-1H-pyrazolo[4,3-c]pyridin-1-yl)cyclohexyl)-2-(2,6-dioxopiperidin-3-yl)-5,6,7,8-tetrahydro-1H-pyrrolo[3,4-g]isoquinoline-1,3(2H)-dione], the IC50 in the assay on 22Rv1 cells (22Rv1, 96 h) is less than 100 nM; in the assay with HL60 it was less than 100 nM. Moreover, the Dmax was more than 90% on CBP (22Rv1 cells, 5 h) and more than 90% on P300 (22Rv1 cells, 5 h). Also, the DC50 at CBP (22Rv1 cells, 5 h) was less than 10 nM; at P300 (22Rv1 cells, 5 h), less than 10 nM.
On to `CC(=O)N1CCc2c(c(N3CCCc4cc(-c5cnn(C)c5)c(C(F)F)cc43)nn2C[C@H]2CC[C@H](N3CCc4cc5c(cc4C3)C(=O)N(C3CCC(=O)NC3=O)C5=O)CC2)C1` (stereo partly drawn) [CP-041, 6-(4-((5-acetyl-3-(7-(difluoromethyl)-6-(1-methyl-1H-pyrazol-4-yl)-3,4-dihydroquinolin-1(2H)-yl)-4,5,6,7-tetrahydro-1H-pyrazolo[4,3-c]pyridin-1-yl)methyl)cyclohexyl)-2-(2,6-dioxopiperidin-3-yl)-5,6,7,8-tetrahydro-1H-pyrrolo[3,4-g]isoquinoline-1,3(2H)-dione], for which the IC50 is less than 1000 nM in the assay on 22Rv1 cells (22Rv1, 96 h) and less than 100 nM with HL60. The Dmax on CBP (22Rv1 cells, 5 h) is more than 90%; on P300 (22Rv1 cells, 5 h), more than 90%. The DC50 was less than 10 nM at CBP (22Rv1 cells, 5 h) and less than 10 nM at P300 (22Rv1 cells, 5 h).
As to `CC(=O)N1CCc2c(c(N3CCCc4cc(-c5cnn(C)c5)c(C(F)F)cc43)nn2C2CCC(CCN3CCc4cc5c(cc4C3)C(=O)N(C3CCC(=O)NC3=O)C5=O)CC2)C1` (stereo not drawn) [CP-045, 6-(2-(4-(5-acetyl-3-(7-(difluoromethyl)-6-(1-methyl-1H-pyrazol-4-yl)-3,4-dihydroquinolin-1(2H)-yl)-4,5,6,7-tetrahydro-1H-pyrazolo[4,3-c]pyridin-1-yl)cyclohexyl)ethyl)-2-(2,6-dioxopiperidin-3-yl)-5,6,7,8-tetrahydro-1H-pyrrolo[3,4-g]isoquinoline-1,3(2H)-dione], the IC50 with 22Rv1 cells (22Rv1, 96 h) was less than 100 nM; in the assay on HL60 it was less than 100 nM. The Dmax on CBP (22Rv1 cells, 5 h) was more than 90%; on P300 (22Rv1 cells, 5 h) it was more than 70%. The DC50 at CBP (22Rv1 cells, 5 h) is less than 10 nM; on P300 (22Rv1 cells, 5 h), less than 10 nM.
As to `CC(=O)N1CCc2c(c(N3CCCc4cc(-c5cnn(C)c5)c(C(F)F)cc43)nn2[C@H]2CC[C@H](CN3Cc4cc5c(cc4C3)C(=O)N(C3CCC(=O)NC3=O)C5)CC2)C1` (stereo partly drawn) [CP-048, 3-(6-(((1r,4r)-4-(5-acetyl-3-(7-(difluoromethyl)-6-(1-methyl-1H-pyrazol-4-yl)-3,4-dihydroquinolin-1(2H)-yl)-4,5,6,7-tetrahydro-1H-pyrazolo[4,3-c]pyridin-1-yl)cyclohexyl)methyl)-1-oxo-3,5,6,7-tetrahydropyrrolo[3,4-f]isoindol-2(1H)-yl)piperidine-2,6-dione], the IC50 in the assay on 22Rv1 cells (22Rv1, 96 h) is less than 100 nM; in the assay on HL60, less than 100 nM. For the same compound, the Dmax is more than 90% on CBP (22Rv1 cells, 5 h) and more than 90% at P300 (22Rv1 cells, 5 h). Also, the DC50 was less than 10 nM on CBP (22Rv1 cells, 5 h) and less than 10 nM on P300 (22Rv1 cells, 5 h).
For `CC(=O)N1CCc2c(c(N3CCCc4cc(-c5cnn(C)c5)c(C(F)F)cc43)nn2[C@H]2CC[C@H](CN3CCc4cc5c(cc4C3)C(=O)N(C3CCC(=O)NC3=O)C5=O)CC2)C1` (stereo partly drawn) [CP-049, 6-((4-(5-acetyl-3-(7-(difluoromethyl)-6-(1-methyl-1H-pyrazol-4-yl)-3,4-dihydroquinolin-1(2H)-yl)-4,5,6,7-tetrahydro-1H-pyrazolo[4,3-c]pyridin-1-yl)cyclohexyl)methyl)-2-(2,6-dioxopiperidin-3-yl)-5,6,7,8-tetrahydro-1H-pyrrolo[3,4-g]isoquinoline-1,3(2H)-dione], the IC50 is less than 100 nM with 22Rv1 cells (22Rv1, 96 h) and less than 100 nM in the assay on HL60. In addition, the Dmax at CBP (22Rv1 cells, 5 h) is more than 90%; on P300 (22Rv1 cells, 5 h) it was more than 70%. In addition, the DC50 at CBP (22Rv1 cells, 5 h) was less than 10 nM; at P300 (22Rv1 cells, 5 h) it was less than 10 nM.
As to `CC(=O)N1CCc2c(c(N3CCCc4cc(-c5cnn(C)c5)c(C(F)F)cc43)nn2C2CCC(C(C)CN3Cc4cc5c(cc4C3)C(=O)N(C3CCC(=O)NC3=O)C5=O)CC2)C1` (stereo not drawn) [CP-051, 6-(2-(4-(5-acetyl-3-(7-(difluoromethyl)-6-(1-methyl-1H-pyrazol-4-yl)-3,4-dihydroquinolin-1(2H)-yl)-4,5,6,7-tetrahydro-1H-pyrazolo[4,3-c]pyridin-1-yl)cyclohexyl)propyl)-2-(2,6-dioxopiperidin-3-yl)-6,7-dihydropyrrolo[3,4-f]isoindole-1,3(2H,5H)-dione], the IC50 in the assay on 22Rv1 cells (22Rv1, 96 h) is less than 100 nM; with HL60 it was less than 100 nM. For the same compound, the Dmax at CBP (22Rv1 cells, 5 h) is more than 90%; at P300 (22Rv1 cells, 5 h), more than 90%. In addition, the DC50 at CBP (22Rv1 cells, 5 h) is less than 10 nM; at P300 (22Rv1 cells, 5 h) it was less than 10 nM.
In the case of `CC(=O)N1CCc2c(c(N3CCCc4cc(-c5cnn(C)c5)c(C(F)F)cc43)nn2C2CCN(CC3Cc4cc5c(cc4C3)C(=O)N(C3CCC(=O)NC3=O)C5=O)CC2)C1` (stereo not drawn) [CP-052, 6-((4-(5-acetyl-3-(7-(difluoromethyl)-6-(1-methyl-1H-pyrazol-4-yl)-3,4-dihydroquinolin-1(2H)-yl)-4,5,6,7-tetrahydro-1H-pyrazolo[4,3-c]pyridin-1-yl)piperidin-1-yl)methyl)-2-(2,6-dioxopiperidin-3-yl)-6,7-dihydrocyclopenta[f]ioindole-1,3(2H,5H)-dione], the IC50 was less than 100 nM in the assay with 22Rv1 cells (22Rv1, 96 h) and less than 1000 nM with HL60. Besides, the Dmax on CBP (22Rv1 cells, 5 h) was more than 70%; at P300 (22Rv1 cells, 5 h), more than 70%. Also, the DC50 is less than 10 nM at CBP (22Rv1 cells, 5 h) and less than 10 nM at P300 (22Rv1 cells, 5 h).
Turning to `Cn1cc(-c2cc3c(cc2C(F)F)N(c2nn(C4CCN(C(=O)CN5Cc6cc7c(cc6C5)C(=O)N(C5CCC(=O)NC5=O)C7=O)CC4)c4c2CN(C(=O)CF)CC4)CCC3)cn1` (stereo not drawn) [CP-053, 6-(2-(4-(3-(7-(difluoromethyl)-6-(1-methyl-1H-pyrazol-4-yl)-3,4-dihydroquinolin-1(2H)-yl)-5-(2-fluoroacetyl)-4,5,6,7-tetrahydro-1H-pyrazolo[4,3-c]pyridin-1-yl)piperidin-1-yl)-2-oxoethyl)-2-(2,6-dioxopiperidin-3-yl)-6,7-dihydropyrrolo[3,4-f]isoindole-1,3(2H,5H)-dione], the IC50 in the assay with 22Rv1 cells and with HL60 was less than 1000 nM in each case. The Dmax is more than 70% on CBP and more than 50% on P300 (22Rv1, 5 h). The DC50 is less than 10 nM at CBP (22Rv1 cells, 5 h) and less than 100 nM on P300 (22Rv1 cells, 5 h).
For `Cn1cc(-c2cc3c(cc2C(F)F)N(c2nn(C4CCN(C(=O)CN5Cc6cc7c(cc6C5)C(=O)N(C5CCC(=O)NC5=O)C7=O)CC4)c4c2CN(C(=O)C2CC2)CC4)CCC3)cn1` (stereo not drawn) [CP-054, 6-(2-(4-(5-(cyclopropanecarbonyl)-3-(7-(difluoromethyl)-6-(1-methyl-1H-pyrazol-4-yl)-3,4-dihydroquinolin-1(2H)-yl)-4,5,6,7-tetrahydro-1H-pyrazolo[4,3-c]pyridin-1-yl)piperidin-1-yl)-2-oxoethyl)-2-(2,6-dioxopiperidin-3-yl)-6,7-dihydropyrrolo[3,4-f]isoindole-1,3(2H,5H)-dione], the IC50 is less than 10000 nM with 22Rv1 cells (22Rv1, 96 h) and less than 10000 nM in the assay on HL60. The Dmax on CBP (22Rv1 cells, 5 h) was less than 50%; at P300 (22Rv1 cells, 5 h), less than 50%. For the same compound, the DC50 was more than 1000 nM at CBP (22Rv1 cells, 5 h) and more than 1000 nM at P300 (22Rv1 cells, 5 h).
As for `Cn1cc(-c2cc3c(cc2C(F)F)N(c2nn(C4CCN(C(=O)CN5Cc6cc7c(cc6C5)C(=O)N(C5CCC(=O)NC5=O)C7=O)CC4)c4c2CN(C(=O)C(F)F)CC4)CCC3)cn1` (stereo not drawn) [CP-056, 6-(2-(4-(5-(2,2-difluoroacetyl)-3-(7-(difluoromethyl)-6-(1-methyl-1H-pyrazol-4-yl)-3,4-dihydroquinolin-1(2H)-yl)-4,5,6,7-tetrahydro-1H-pyrazolo[4,3-c]pyridin-1-yl)piperidin-1-yl)-2-oxoethyl)-2-(2,6-dioxopiperidin-3-yl)-6,7-dihydropyrrolo[3,4-f]isoindole-1,3(2H,5H)-dione], the IC50 in the assay on 22Rv1 cells (22Rv1, 96 h) was less than 1000 nM; in the assay with HL60, less than 1000 nM. In addition, the Dmax was more than 50% on CBP (22Rv1 cells, 5 h) and less than 50% at P300 (22Rv1 cells, 5 h). The DC50 at CBP (22Rv1 cells, 5 h) was less than 1000 nM; at P300 (22Rv1 cells, 5 h), more than 1000 nM.
